These results are taken from patent US20070004660A1, “Synergistic Modulation of Flt3 Kinase Using Alkylquinolines and Alkylquinazolines” (priority 2005, published 2007).

Where only a bound is given, the exact number is not on record here.

The first test has as its system Baf3-ITD cells. Nature of the test: Cell proliferation assay, single agents and FTI/FLT3 inhibitor combinations, Baf3-ITD. The note with it: with single sub-IC50 dose of FLT3 inhibitor Compound A, 50 nM. In kind it is cell-based, murine. As to the method:
The cell lines that were tested included those that are dependent on FLT3ITD mutant activity for growth (MV4-11 and Baf3-FLT3ITD), FLT3wt activity for growth (Baf3FLT3) and those that grow independent of FLT3 activity (THP-1). […] Baf3-FLT3 and Baf3-FLT3ITD cell lines were obtained from Dr. Michael Henrich and the Oregon Health Sciences University. The Baf3 FLT3 cell lines were created by stable transfection of parental Baf3 cells (a murine B cell lymphoma line dependent on the cytokine IL-3 for growth) with either wild-type FLT3 or FLT3 containing the ITD insertion in the juxatamembrane domain of the receptor resulting in its constitutive activation. […]
To statistically evaluate the synergy of a FLT3 inhibitor and an FTI in FLT3 dependent cell lines, dosing combinations were evaluated by the method of Chou and Talalay. See Chou T C, Talalay P. (1984) “Quantitative analysis of dose-effect relationships: the combined effects of multiple drugs or enzyme inhibitors.” Adv Enzyme Regul. […] Using this method, multiple FTI and FLT3 combinations were evaluated. […]
Cell proliferation assay for MV4-11, Baf3-ITD, Baf3-FLT3 and THP-1 cells. […] Total cell growth is quantified as the difference in luminescent counts (relative light units, RLU) of cell number at Day 0 compared to total cell number at Day 3 (72 hours of growth and/or compound treatment). […]
Consider `Cn1cncc1C(N)(c1ccc(Cl)cc1)c1ccc2c(c1)c(-c1cccc(Cl)c1)cc(=O)n2C` (single isomer, unassigned; (+)) [Tipifarnib, (+)-6-[amino(4-chlorophenyl)(1-methyl-1H-imidazol-5-yl)methyl]-4-(3-chlorophenyl)-1-methyl-2(1H)-quinolinone], for which the “increase in potency of Tipifarnib” value is recorded as “more than 3 fold”.

A further test has as its system patients with relapsed and refractory AML.
Test: not given
Particulars: multicenter Phase II trial, relapsed AML; cited from earlier work.
As to `Cn1cncc1C(N)(c1ccc(Cl)cc1)c1ccc2c(c1)c(-c1cccc(Cl)c1)cc(=O)n2C` (single isomer, unassigned; (+)) [Tipifarnib, (+)-6-[amino(4-chlorophenyl)(1-methyl-1H-imidazol-5-yl)methyl]-4-(3-chlorophenyl)-1-methyl-2(1H)-quinolinone], the “>50% reduction in bone marrow blasts” value is 31 of 50 and the “complete responses (bone marrow blasts <5%)” value is on record as 17 of 50.

Staying with this test, now noted: patients with relapsed and refractory AML; cited from earlier work.
For the compound `Cn1cncc1C(N)(c1ccc(Cl)cc1)c1ccc2c(c1)c(-c1cccc(Cl)c1)cc(=O)n2C` (single isomer, unassigned; (+)) [Tipifarnib, (+)-6-[amino(4-chlorophenyl)(1-methyl-1H-imidazol-5-yl)methyl]-4-(3-chlorophenyl)-1-methyl-2(1H)-quinolinone], the response rate is given as roughly 30%.

The test system of another test is MV4-11 cells. Description: Inhibition of MV4-11 cell proliferation (CellTiterGlo, 72 h). In kind it is cell-based. The note with it: Homo sapiens; 72 h growth inhibition; uncertainty ±20%. Background: ATP-based viability assays read luminescence as a measure of living cells.
In the case of `O=C1CCCN1CCOc1cc2ncnc(C3CCN(C(=O)Nc4ccc(N5CCCC5)cc4)CC3)c2cc1F` [Compound 206, 4-{6-Fluoro-7-[2-(2-oxo-pyrrolidin-1-yl)-ethoxy]-quinazolin-4-yl}-piperidine-1-carboxylic acid (4-pyrrolidin-1-yl-phenyl)-amide], the midpoint of inhibition, the IC50, lay at 61 nM.

The compound `COc1ccc2c(C3CCN(C(=O)Nc4ccc(OC(C)C)cc4)CC3)ncnc2c1` [Example 31, 4-(7-Methoxy-quinazolin-4-yl)-piperidine-1-carboxylic acid (4-isopropoxy-phenyl)-amide] displayed an IC50 of 85 nM.

The compound `COc1cc2ncnc(C3CCN(C(=O)Nc4ccc(NC(C)=O)cc4)CC3)c2cc1OC` [Example 25, 4-(6,7-Dimethoxy-quinazolin-4-yl)-piperidine-1-carboxylic acid (4-acetylamino-phenyl)-amide] displayed an IC50 greater than 10000 nM.

For `COc1cc2ncnc(C3CCN(C(=O)Nc4ccc(I)cc4)CC3)c2cc1OC` [Example 2, 4-(6,7-Dimethoxy-quinazolin-4-yl)-piperidine-1-carboxylic acid (4-iodo-phenyl)-amide], the IC50 is 752 nM.

As for `CC(C)Oc1ccc(NC(=O)N2CCC(c3ncnc4cc(OCCCN5CCN(C)CC5)ccc34)CC2)cc1` [Example 39], half-maximal inhibition (IC50) was put at 14 nM.

`CCN(CC)CCCOc1ccc2c(C3CCN(C(=O)Nc4ccc(OC(C)C)cc4)CC3)ncnc2c1` [Example 36, 4-[7-(3-Diethylamino-propoxy)-quinazolin-4-yl)-piperidine-1-carboxylic acid (4-isopropoxy-phenyl)-amide]: the 50% inhibitory concentration (IC50) worked out at 42 nM.

In the case of `CC(C)c1ccc(NC(=O)N2CCC(c3ncnc4cc(Cl)ccc34)CC2)cc1` [Example 30, 4-(7-Chloro-quinazolin-4-yl)-piperidine-1-carboxylic acid (4-isopropyl-phenyl)-amide], half-maximal inhibition (IC50) required 380 nM.

In turn, `CC(C)Oc1ccc(NC(=O)N2CCC(c3ncnc4cc(OCCN5CCOCC5)ccc34)CC2)cc1` [Example 37] yielded an IC50 of 165 nM.

In turn, `COc1cc2c(C3CCN(C(=O)Nc4ccc(N5CCCC5)cc4)CC3)ncnc2cc1N1CCOCC1` [Compound 211, 4-(6-Methoxy-7-morpholin-4-yl-quinazolin-4-yl)-piperidine-1-carboxylic acid (4-pyrrolidin-1-yl-phenyl)-amide] displayed an IC50 of 20 nM.

`COc1cc2c(C3CCN(C(=O)Nc4ccc(N5CCCC5)cc4)CC3)ncnc2cc1OCCN1CCCC1=O` [Compound 209, 4-{6-Methoxy-7-[2-(2-oxo-pyrrolidin-1-yl)-ethoxy]-quinazolin-4-yl}-piperidine-1-carboxylic acid (4-pyrrolidin-1-yl-phenyl)-amide] showed a half-maximal inhibitory concentration (IC50) of 26 nM.

In turn, `COc1cc2ncnc(C3CCN(C(=O)Cc4ccc(C(C)C)cc4)CC3)c2cc1OC` [Example 28, 1-[4-(6,7-Dimethoxy-quinazolin-4-yl)-piperidin-1-yl]-2-(4-isopropyl-phenyl)-ethanone] came in with an IC50 of 15 nM.

Turning to `CC(C)Oc1ccc(NC(=O)N2CCC(c3ncnc4cc(Cl)ccc34)CC2)cc1` [Example 29, 4-(7-Chloro-quinazolin-4-yl)-piperidine-1-carboxylic acid (4-isopropoxy-phenyl)-amide], the IC50 came to 315 nM.

For the compound `COCCOc1ccc(NC(=O)N2CCC(c3ncnc4cc(OC)c(OC)cc34)CC2)cc1` [Example 40, 4-(6,7-Dimethoxy-quinazolin-4-yl)-piperidine-1-carboxylic acid [4-(2-methoxy-ethoxy)-phenyl]-amide], the IC50 amounted to 2200 nM.

As to `O=C(Nc1ccc(N2CCCC2)cc1)N1CCC(c2ncnc3cc(N4CCOCC4)c(F)cc23)CC1` [Compound 210, 4-(6-Fluoro-7-morpholin-4-yl-quinazolin-4-yl)-piperidine-1-carboxylic acid (4-pyrrolidin-1-yl-phenyl)-amide], inhibition was half-maximal at 102 nM (IC50).

Regarding `CC(C)Oc1ccc(NC(=O)N2CCC(c3ncnc4cc(OCCCN5CCOCC5)ccc34)CC2)cc1` [Example 38], the IC50 was 16 nM.

Regarding `COc1cc2ncnc(C3CCN(C(=O)Nc4ccc(-n5ccnc5)cc4)CC3)c2cc1OC` [Example 3, 4-(6,7-Dimethoxy-quinazolin-4-yl)-piperidine-1-carboxylic acid (4-imidazol-1-yl-phenyl)-amide], the IC50 turned out to be 636 nM.

`COc1cc2c(C3CCN(C(=O)Nc4ccc(N5CCOCC5)cc4)CC3)ncnc2cc1N1CCOCC1` [Compound 212, 4-(6-Methoxy-7-morpholin-4-yl-quinazolin-4-yl)-piperidine-1-carboxylic acid (4-morpholin-4-yl-phenyl)-amide]: it took 367 nM to reach half-maximal inhibition (IC50).

In turn, `COc1cc2ncnc(C3CCN(C(=O)Nc4ccc(N(C)C)cc4)CC3)c2cc1OC` [Example 26, 4-(6,7-Dimethoxy-quinazolin-4-yl)-piperidine-1-carboxylic acid (4-dimethylamino-phenyl)-amide] displayed an IC50 of 204 nM.

Take `CC(C)Oc1ccc(NC(=O)N2CCC(c3ncnc4cc(OCCN5CCCCC5)ccc34)CC2)cc1` [Example 34, 4-(7-(2-Piperindin-1-yl-ethoxy)-quinazolin-4-yl)-piperidine-1-carboxylic acid (4-isopropoxy-phenyl)-amide]: the IC50 was determined as 95 nM.

In turn, `COc1cc2c(C3CCN(C(=O)Nc4ccc(N5CCOCC5)cc4)CC3)ncnc2cc1OCCCN1CCN(C)CC1` [Compound 207, 4-{6-Methoxy-7-[3-(4-methyl-piperazin-1-yl)-propoxy]-quinazolin-4-yl}-piperidine-1-carboxylic acid (4-morpholin-4-yl-phenyl)-amide] yielded a concentration for half-maximal inhibition (IC50) of 48 nM.

`CC(C)Oc1ccc(NC(=O)N2CCC(c3ncnc4cc(OCCCN5CCCCC5)ccc34)CC2)cc1` [Example 33, 4-(7-(3-Piperidin-1-yl-propoxy)-quinazolin-4-yl)-piperidine-1-carboxylic acid (4-isopropoxy-phenyl)-amide] showed an IC50 of 50 nM.

For `CCN(CC)CCOc1ccc2c(C3CCN(C(=O)Nc4ccc(OC(C)C)cc4)CC3)ncnc2c1` [Example 35, 4-[7-(2-Diethylamino-ethoxy)-quinazolin-4-yl)-piperidine-1-carboxylic acid (4-isopropoxy-phenyl)-amide], the midpoint of inhibition, the IC50, lay at 95 nM.

The compound `COc1ccc2c(C3CCN(C(=O)Nc4ccc(C(C)C)cc4)CC3)ncnc2c1` [Example 32, 4-(7-Methoxy-quinazolin-4-yl)-piperidine-1-carboxylic acid (4-isopropyl-phenyl)-amide] came in with an IC50 of 235 nM.

Broadly, the IC50 is the concentration that gives 50% inhibition. Lower therefore signals greater potency.
